From patent US11426436B2, “Bacteria-comprising compositions and methods of using the same for treating and/or preventing gastrointestinal, metabolic and/or other diseases” (priority 2015, dated 2022)
Values after ≈ are worked out from the molar mass of the structure shown. Where two headings read alike, the source gives them in different places.

How the values were obtained:
[1] = test system: Intestinimonas strain AF211; assay: Antibiotic sensitivity (MIC) of Intestinimonas strain AF211; format: cell-based, Intestinimonas butyriciproducens
Method: “Minimum inhibitory concentration” or “MIC” as used herein refers to the lowest concentration of an antimicrobial that will inhibit the visible growth of a microorganism after overnight incubation. Minimum inhibitory concentrations are important in diagnostic laboratories to confirm resistance of microorganisms to an antimicrobial agent and also to monitor the activity of new antimicrobial agents. An MIC is generally regarded as the most basic laboratory measurement of the activity of an antimicrobial agent against an organism.
Rettedal et al. (Nature Comm. (2014), 5:4714) describe the use of antibiotics to isolate and culture bacteria from the human intestinal tract. However, this approach often results in antibiotic-resistant bacteria and these are undesired in formulations aimed for human or animal use.
Strain AF211 had the following sensitivity to various antibiotics: […]

[2] = test system: Intestinimonas strain P1C2; settings: against Intestinimonas strain P1C2, described as resistant; cited from earlier work
[3] = Intestinimonas butyriciproducens, against strain AF211, read-out: MIC

For `CC[C@H]1OC(=O)[C@H](C)[C@@H](O[C@H]2C[C@@](C)(OC)[C@@H](O)[C@H](C)O2)[C@H](C)[C@@H](O[C@@H]2O[C@H](C)C[C@H](N(C)C)[C@H]2O)[C@](C)(O)C[C@@H](C)C(=O)[C@H](C)[C@@H](O)[C@]1(C)O` [Erythromycin], the MIC ([1]; Intestinimonas butyriciproducens, against strain AF211, text value, read-out: MIC of erythromycin) is given as 1 µg/mL, the MIC [1, 3] is given as 0.75 to 1 µg/mL (≈ 1.02 to 1.36 µM) and the MIC of erythromycin [2] is given as 32 µg/mL.
For `Cc1onc(-c2ccccc2)c1C(=O)N[C@@H]1C(=O)N2[C@@H]1SC(C)(C)[C@@H]2C(=O)O` [Oxacillin], the MIC [1, 3] was 0.38 µg/mL (≈ 0.947 µM).
For `NC[C@H]1O[C@H](O[C@H]2[C@H](O)[C@@H](O[C@H]3O[C@H](CO)[C@@H](O)[C@H](N)[C@H]3O)[C@H](N)C[C@@H]2N)[C@H](N)C[C@@H]1O` [Tobramycin], the MIC [1, 3] was 2 µg/mL (≈ 4.28 µM).
`CN[C@H](CC(C)C)C(=O)N[C@H]1C(=O)N[C@@H](CC(N)=O)C(=O)N[C@H]2C(=O)N[C@H]3C(=O)N[C@H](C(=O)N[C@H](C(=O)O)c4cc(O)cc(O)c4-c4cc3ccc4O)[C@H](O)c3ccc(c(Cl)c3)Oc3cc2cc(c3O[C@@H]2O[C@H](CO)[C@@H](O)[C@H](O)[C@H]2O[C@H]2C[C@](C)(N)[C@H](O)[C@H](C)O2)Oc2ccc(cc2Cl)[C@H]1O` [Vancomycin] gave an MIC ([1]; Intestinimonas butyriciproducens, AF211) of 0.75 µg/mL (≈ 0.518 µM).
Compound Teicoplanin has an MIC ([1]; against strain AF211) of 0.047 µg/mL.
